Test results from ChEMBL document CHEMBL5053510, “Discovery of AS-1763: A Potent, Selective, Noncovalent, and Orally Available Inhibitor of Bruton's Tyrosine Kinase” (J Med Chem, 2021).
Calls of active or inactive are those of the source. No cut-off for these calls is given here.

Assays:
[1] = MRT (0 to last) in dog at 1 mg/kg, iv; format: ADME, organism-based, Canis lupus familiaris; conditions: in vivo
[2] = MRT (0 to last) in dog at 5 mg/kg, po; format: ADME, organism-based, Canis lupus familiaris; conditions: in vivo
[3] = MRT (0 to last) in mouse at 2 mg/kg, iv; format: ADME, organism-based; conditions: in vivo
[4] = system: Tyrosine-protein kinase BTK (Homo sapiens), Q06187 [C481S]; test: Inhibition of human full-length BTK C481S mutant (2 to 659 residues) expressed in baculovirus expression system at 0.3 uM by mobility shift assay
Tyrosine-protein kinase BTK (Homo sapiens), Q06187 [C481S], sequence (Q06187 whole entry C481S, the tested form may be a part): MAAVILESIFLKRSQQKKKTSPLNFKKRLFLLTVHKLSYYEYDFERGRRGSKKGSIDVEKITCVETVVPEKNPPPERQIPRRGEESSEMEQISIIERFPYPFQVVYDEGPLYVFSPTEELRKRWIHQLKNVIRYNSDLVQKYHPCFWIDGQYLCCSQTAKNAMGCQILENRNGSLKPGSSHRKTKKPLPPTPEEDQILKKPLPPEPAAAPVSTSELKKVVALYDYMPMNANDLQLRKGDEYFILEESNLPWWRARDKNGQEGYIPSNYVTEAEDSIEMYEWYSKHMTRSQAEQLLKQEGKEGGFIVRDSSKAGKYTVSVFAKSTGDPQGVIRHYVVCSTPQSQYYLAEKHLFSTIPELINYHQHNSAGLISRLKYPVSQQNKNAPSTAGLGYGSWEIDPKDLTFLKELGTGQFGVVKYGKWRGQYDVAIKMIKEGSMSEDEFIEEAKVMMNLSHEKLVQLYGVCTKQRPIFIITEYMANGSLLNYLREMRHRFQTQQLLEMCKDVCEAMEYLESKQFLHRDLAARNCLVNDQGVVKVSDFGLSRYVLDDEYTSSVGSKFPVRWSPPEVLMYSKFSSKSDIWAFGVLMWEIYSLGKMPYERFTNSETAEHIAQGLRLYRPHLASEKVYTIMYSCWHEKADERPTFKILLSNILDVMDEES

OCI-Ly10 [5] = test: Antiproliferative activity against human OCILY10 cells assessed as reduction in cell proliferation measured after 96 hrs; format: functional, cell-based; conditions: OCI-Ly10, 96 h
[6] = target: Muscle, skeletal receptor tyrosine-protein kinase (Homo sapiens, UniProt O15146); test: Inhibition of human MUSK expressed in baculovirus expression system by mobility shift assay
Muscle, skeletal receptor tyrosine-protein kinase, sequence (O15146 whole entry, the tested form may be a part): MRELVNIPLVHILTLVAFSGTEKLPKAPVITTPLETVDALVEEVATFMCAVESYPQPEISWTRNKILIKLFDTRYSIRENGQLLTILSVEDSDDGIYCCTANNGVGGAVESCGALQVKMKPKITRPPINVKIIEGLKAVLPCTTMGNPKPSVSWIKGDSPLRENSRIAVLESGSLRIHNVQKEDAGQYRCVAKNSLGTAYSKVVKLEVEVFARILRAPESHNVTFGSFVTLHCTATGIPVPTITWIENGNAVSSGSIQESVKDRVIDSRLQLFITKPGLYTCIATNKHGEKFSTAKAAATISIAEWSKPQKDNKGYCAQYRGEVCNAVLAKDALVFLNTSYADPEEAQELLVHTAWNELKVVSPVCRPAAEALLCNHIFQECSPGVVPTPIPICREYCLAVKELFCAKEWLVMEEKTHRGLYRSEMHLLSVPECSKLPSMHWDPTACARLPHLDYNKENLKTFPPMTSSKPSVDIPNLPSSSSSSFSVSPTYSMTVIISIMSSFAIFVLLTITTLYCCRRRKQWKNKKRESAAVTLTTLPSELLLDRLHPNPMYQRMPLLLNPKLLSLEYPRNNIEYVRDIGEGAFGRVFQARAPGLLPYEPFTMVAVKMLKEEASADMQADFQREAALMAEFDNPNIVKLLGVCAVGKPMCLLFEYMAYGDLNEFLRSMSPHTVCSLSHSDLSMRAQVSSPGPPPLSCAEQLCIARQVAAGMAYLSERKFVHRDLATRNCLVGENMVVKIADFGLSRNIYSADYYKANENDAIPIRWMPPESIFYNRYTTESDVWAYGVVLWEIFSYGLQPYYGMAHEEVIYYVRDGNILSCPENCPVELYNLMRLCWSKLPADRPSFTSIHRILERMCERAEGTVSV

[7] = target: Tyrosine-protein kinase Tec (Homo sapiens, UniProt P42680); test: Inhibition of human TEC (359 - 631 residues) expressed in baculovirus expression system by mobility shift assay
Tyrosine-protein kinase Tec, sequence (P42680 whole entry, the tested form may be a part): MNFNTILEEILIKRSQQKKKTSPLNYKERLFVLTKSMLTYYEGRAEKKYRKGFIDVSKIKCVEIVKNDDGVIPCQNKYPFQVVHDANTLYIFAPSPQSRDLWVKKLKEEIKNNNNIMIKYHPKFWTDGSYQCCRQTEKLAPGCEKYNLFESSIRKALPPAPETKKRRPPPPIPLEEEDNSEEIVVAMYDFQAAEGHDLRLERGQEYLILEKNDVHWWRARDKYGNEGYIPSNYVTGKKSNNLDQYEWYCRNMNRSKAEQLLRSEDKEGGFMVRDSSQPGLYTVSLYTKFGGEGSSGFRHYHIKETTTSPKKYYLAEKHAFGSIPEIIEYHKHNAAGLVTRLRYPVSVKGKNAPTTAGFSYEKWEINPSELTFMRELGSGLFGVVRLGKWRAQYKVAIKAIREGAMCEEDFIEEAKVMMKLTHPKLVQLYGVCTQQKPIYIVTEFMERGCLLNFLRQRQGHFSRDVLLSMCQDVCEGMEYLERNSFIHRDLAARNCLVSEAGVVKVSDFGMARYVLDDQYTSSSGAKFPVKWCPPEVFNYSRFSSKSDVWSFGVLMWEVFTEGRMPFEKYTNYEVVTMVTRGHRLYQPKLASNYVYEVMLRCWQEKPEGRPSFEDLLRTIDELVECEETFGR

[8] = target: Tyrosine-protein kinase BTK (Homo sapiens, UniProt Q06187); test: Inhibition of wild type BTK (unknown origin) in presence of 1 mM ATP by microplate reader assay
Tyrosine-protein kinase BTK, sequence (Q06187 whole entry): as the sequence (Q06187 whole entry C481S, the tested form may be a part) above, with S481C counted along it

[9] = Plasma protein binding in mouse; format: ADME, cell-free; conditions: read-out: PPB (converted)
[10] = Plasma protein binding in rat; format: ADME, cell-free; conditions: read-out: PPB (converted)
[11] = Metabolic stability in dog hepatocytes assessed as Intrinsic clearance; format: ADME, cell-based, Canis lupus familiaris, Hepatocyte
Cytochrome P450 2D6 = Cytochrome P450 2D6 (Homo sapiens, UniProt P10635); test: Inhibition of […] (unknown origin); format: ADME
Cytochrome P450 2D6, sequence (P10635 whole entry): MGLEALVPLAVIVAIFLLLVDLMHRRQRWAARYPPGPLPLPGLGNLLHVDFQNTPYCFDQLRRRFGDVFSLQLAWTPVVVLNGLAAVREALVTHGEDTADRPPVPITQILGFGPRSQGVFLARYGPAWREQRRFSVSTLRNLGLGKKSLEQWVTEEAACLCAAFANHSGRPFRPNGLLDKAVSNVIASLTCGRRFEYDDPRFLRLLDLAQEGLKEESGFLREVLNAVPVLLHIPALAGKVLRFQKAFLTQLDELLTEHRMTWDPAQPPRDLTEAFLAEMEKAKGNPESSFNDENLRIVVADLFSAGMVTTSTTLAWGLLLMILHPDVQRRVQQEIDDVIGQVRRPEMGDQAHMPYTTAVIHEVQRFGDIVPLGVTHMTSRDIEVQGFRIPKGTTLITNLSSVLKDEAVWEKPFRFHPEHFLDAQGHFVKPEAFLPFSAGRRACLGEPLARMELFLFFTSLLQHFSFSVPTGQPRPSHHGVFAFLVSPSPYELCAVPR

Cytochrome P450 3A4 = Cytochrome P450 3A4 (Homo sapiens, UniProt P08684); test: Inhibition of CYP3A4 (unknown origin); format: ADME
Cytochrome P450 3A4, sequence (P08684 whole entry): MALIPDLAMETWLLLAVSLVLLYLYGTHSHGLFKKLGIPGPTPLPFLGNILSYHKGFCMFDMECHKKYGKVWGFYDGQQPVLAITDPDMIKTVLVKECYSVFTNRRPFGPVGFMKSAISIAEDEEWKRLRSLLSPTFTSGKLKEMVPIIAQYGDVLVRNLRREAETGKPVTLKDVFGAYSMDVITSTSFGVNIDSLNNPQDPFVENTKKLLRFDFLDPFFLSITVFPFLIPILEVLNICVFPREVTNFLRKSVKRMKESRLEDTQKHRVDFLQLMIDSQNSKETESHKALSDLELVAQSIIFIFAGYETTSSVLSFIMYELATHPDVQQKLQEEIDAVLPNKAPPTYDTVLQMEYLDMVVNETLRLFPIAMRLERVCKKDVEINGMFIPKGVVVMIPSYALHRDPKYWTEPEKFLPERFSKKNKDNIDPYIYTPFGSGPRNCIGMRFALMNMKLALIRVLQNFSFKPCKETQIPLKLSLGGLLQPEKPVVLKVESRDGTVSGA

[12] = target: Voltage-gated inwardly rectifying potassium channel KCNH2 (Homo sapiens, UniProt Q12809); test: Inhibition of human ERG
Voltage-gated inwardly rectifying potassium channel KCNH2, sequence (Q12809 whole entry): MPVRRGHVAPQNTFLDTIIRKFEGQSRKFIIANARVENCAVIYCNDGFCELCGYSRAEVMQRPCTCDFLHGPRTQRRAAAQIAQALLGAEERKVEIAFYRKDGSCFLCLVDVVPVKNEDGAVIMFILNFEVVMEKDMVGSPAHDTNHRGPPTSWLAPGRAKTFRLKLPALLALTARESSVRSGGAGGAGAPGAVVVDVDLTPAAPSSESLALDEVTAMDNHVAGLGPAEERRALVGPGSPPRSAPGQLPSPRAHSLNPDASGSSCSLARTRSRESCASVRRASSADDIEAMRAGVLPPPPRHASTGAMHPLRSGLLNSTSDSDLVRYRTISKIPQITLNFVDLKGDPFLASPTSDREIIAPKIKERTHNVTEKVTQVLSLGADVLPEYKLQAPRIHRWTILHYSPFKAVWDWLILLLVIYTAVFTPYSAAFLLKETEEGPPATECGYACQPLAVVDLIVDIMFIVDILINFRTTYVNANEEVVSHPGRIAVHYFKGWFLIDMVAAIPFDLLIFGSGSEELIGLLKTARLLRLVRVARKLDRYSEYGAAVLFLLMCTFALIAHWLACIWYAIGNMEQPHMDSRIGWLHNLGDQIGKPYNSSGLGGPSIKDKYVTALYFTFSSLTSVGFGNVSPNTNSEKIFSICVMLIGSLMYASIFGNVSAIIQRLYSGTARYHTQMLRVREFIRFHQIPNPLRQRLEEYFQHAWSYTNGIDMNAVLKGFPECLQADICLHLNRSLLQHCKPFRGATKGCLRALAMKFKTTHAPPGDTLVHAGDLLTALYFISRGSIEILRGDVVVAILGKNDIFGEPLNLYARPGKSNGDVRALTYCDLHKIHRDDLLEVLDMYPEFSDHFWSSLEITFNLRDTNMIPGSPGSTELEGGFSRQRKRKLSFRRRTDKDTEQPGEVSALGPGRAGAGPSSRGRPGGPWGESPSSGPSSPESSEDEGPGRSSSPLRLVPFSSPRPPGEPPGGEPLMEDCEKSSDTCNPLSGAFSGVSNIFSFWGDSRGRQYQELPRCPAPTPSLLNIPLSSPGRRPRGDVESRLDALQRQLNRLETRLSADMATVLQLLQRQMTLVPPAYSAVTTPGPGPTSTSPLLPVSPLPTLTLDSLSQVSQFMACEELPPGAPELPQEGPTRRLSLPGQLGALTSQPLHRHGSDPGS

[13] = Half life in mouse at 15 mg/kg, po; format: ADME, organism-based; conditions: in vivo
[14] = Half life in dog at 5 mg/kg, po; format: ADME, organism-based, Canis lupus familiaris; conditions: in vivo
[15] = Half life in rat at 2 mg/kg, iv; format: ADME, organism-based; conditions: in vivo
[16] = Half life in dog at 1 mg/kg, iv; format: ADME, organism-based, Canis lupus familiaris; conditions: in vivo
[17] = Tmax in rat at 15 mg/kg, po; format: ADME, organism-based; conditions: in vivo
[18] = Initial plasma concentration in rat at 2 mg/kg, iv; format: ADME, organism-based
[19] = Initial plasma concentration in rat at 15 mg/kg, po; format: ADME, organism-based; conditions: in vivo
[20] = Initial plasma concentration in dog at 1 mg/kg, iv; format: ADME, organism-based, Canis lupus familiaris
[21] = AUC (0 to last) in mouse at 2 mg/kg, iv; format: ADME, organism-based; parameters: time 0 - last, dose 2 mg/kg, route iv; conditions: in vivo
[22] = AUC (0 to last) in mouse at 15 mg/kg, po; format: ADME, organism-based; parameters: time 0 - last, dose 15 mg/kg, route po; conditions: in vivo
[23] = AUC (0 to last) in dog at 5 mg/kg, po; format: ADME, organism-based, Canis lupus familiaris; parameters: time 0 - last, dose 5 mg/kg, route po; conditions: in vivo
[24] = Volume of distribution at steady state in mouse at 2 mg/kg, iv; format: ADME, organism-based; conditions: in vivo, read-out: Vdss
[25] = Volume of distribution at steady state in dog at 2 mg/kg, iv; format: ADME, organism-based, Canis lupus familiaris; conditions: in vivo, read-out: Vdss
[26] = Clearence in rat at 2 mg/kg, iv; format: ADME, organism-based; conditions: in vivo
[27] = Oral bioavailability in mouse at 15 mg/kg; format: ADME, organism-based; conditions: in vivo
OCI-Ly10 [28] = test: Antitumor activity against human ibrutinib-resistant BTK[C481S] knock-in OCILY10 cells in SCID mouse assessed as tumor growth inhibition at 60 mg/kg, po bid measured after 63 days; format: functional; conditions: OCI-Ly10, 1512 h, time 63 day, read-out: TGI
Mus musculus = species on record: Mus musculus; test: Toxicity in SCID mouse harboring human OCILY10 cells harboring BTK C481S mutant […] gene assessed as body weight loss; format: organism-based
[29] = target: Tyrosine-protein kinase BTK (Mus musculus) (UniProt P35991); test: In vivo inhibition of autophosphorylation of BTK at Y223 in mouse at 7.5 to 30 mg/kg, po measured up to 8 hrs by Western blot analysis; format: functional, organism-based; conditions: dose 7.5-30 mg/kg
Tyrosine-protein kinase BTK (Mus musculus), sequence (P35991 whole entry): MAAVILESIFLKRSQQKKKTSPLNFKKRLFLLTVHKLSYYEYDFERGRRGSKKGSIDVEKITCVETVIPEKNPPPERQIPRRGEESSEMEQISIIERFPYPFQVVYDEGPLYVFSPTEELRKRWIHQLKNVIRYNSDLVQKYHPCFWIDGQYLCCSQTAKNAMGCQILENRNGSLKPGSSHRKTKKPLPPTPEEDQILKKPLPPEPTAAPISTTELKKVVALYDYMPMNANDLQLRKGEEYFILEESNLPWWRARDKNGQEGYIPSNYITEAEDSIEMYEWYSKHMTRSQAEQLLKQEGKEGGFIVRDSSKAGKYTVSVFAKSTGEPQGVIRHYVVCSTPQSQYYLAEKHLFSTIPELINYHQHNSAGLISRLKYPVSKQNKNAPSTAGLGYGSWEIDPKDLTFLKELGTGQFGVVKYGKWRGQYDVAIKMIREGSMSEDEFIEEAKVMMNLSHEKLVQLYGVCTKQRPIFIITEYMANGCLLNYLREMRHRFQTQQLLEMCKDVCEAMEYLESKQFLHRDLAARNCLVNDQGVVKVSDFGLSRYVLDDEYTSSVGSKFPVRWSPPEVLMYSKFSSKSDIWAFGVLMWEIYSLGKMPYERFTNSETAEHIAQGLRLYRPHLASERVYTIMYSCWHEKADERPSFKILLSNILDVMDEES

## Nc1nc(-c2cccc(-n3ccc4cc(C5CC5)cc(F)c4c3=O)c2CO)c2cc(C3=CCN(C4COC4)CC3)[nH]c2n1 [MILREBRUTINIB]
[1]
  MRT last: 1.23 h
[2]
  MRT last: 2.3 h
[3]
  MRT last: 1.36 h
[4]
  inhibition: 99.8%
OCI-Ly10 [5]
  IC50: 0.002 µM
[6]
  IC50: 0.306 µM
[7]
  IC50: 0.00134 µM
[8]
  IC50: 0.00372 µM
[9]
  fraction unbound: 0.008
[10]
  fraction unbound: 0.012
[11]
  CLH: 1.28 mL/min/g
Cytochrome P450 2D6
  IC50: > 10 µM
Cytochrome P450 3A4
  IC50: > 10 µM
[12]
  IC50: 8.54 µM
[13]
  half-life: 2.25 h
[14]
  half-life: 1.9 h
[15]
  half-life: 2.65 h
[16]
  half-life: 1.29 h
[17]
  Tmax: 2 h
[18]
  C0: 0.874 µg/mL
[19]
  C0: 0.418 µg/mL
[20]
  C0: 1.28 µg/mL
[21]
  AUC(0-t): 1.75 µg·h/mL
[22]
  AUC(0-t): 8.06 µg·h/mL
[23]
  AUC(0-t): 2.49 µg·h/mL
[24]
  Vd: 1.61 L/kg
[25]
  Vd: 1.77 L/kg
[26]
  clearance: 1.22 L/h/kg
[27]
  bioavailability: 60.8%
OCI-Ly10 [28]
  inhibition in vivo at 60 mg/kg: 73%
Mus musculus
  Activity: Non-Toxic
[29]
  inhibition: Active
